Experimental data: the CheMixHub viscosity set
Values joined by “and” are separate entries in the source; they are usually repeats but may differ in a detail not shown here. Equal values may be shown once. ± gives the uncertainty stated by the source.

Experiment: xn = mol fraction of the nth substance listed

SMILES: CC#N + CO
- viscosity (298.15 K, 101 kPa, x1 = 0.0892): 0.478 ± 0.006 mPa·s
- viscosity (298.15 K, 101 kPa, x1 = 0.1871): 0.431 ± 0.005 mPa·s
- viscosity (298.15 K, 101 kPa, x1 = 0.2884): 0.397 ± 0.005 mPa·s
- viscosity (298.15 K, 101 kPa, x1 = 0.4054): 0.365 ± 0.004 mPa·s
- viscosity (298.15 K, 101 kPa, x1 = 0.4849): 0.351 ± 0.004 mPa·s
- viscosity (298.15 K, 101 kPa, x1 = 0.5981): 0.339 ± 0.004 mPa·s
- viscosity (298.15 K, 101 kPa, x1 = 0.6986): 0.331 ± 0.004 mPa·s
- viscosity (298.15 K, 101 kPa, x1 = 0.8078): 0.327 ± 0.004 mPa·s
- viscosity (298.15 K, 101 kPa, x1 = 0.9013): 0.329 ± 0.004 mPa·s
- viscosity (298.15 K, 101 kPa, x2 = 0.1219): 0.331 ± 0.003 mPa·s
- viscosity (298.15 K, 101 kPa, x2 = 0.178): 0.334 ± 0.004 mPa·s
- viscosity (298.15 K, 101 kPa, x2 = 0.2): 0.334 ± 0.001 mPa·s
- viscosity (298.15 K, 101 kPa, x2 = 0.216): 0.329 ± 0.003 mPa·s and 0.333 ± 0.004 mPa·s
- viscosity (298.15 K, 101 kPa, x2 = 0.3487): 0.334 ± 0.003 mPa·s
- viscosity (298.15 K, 101 kPa, x2 = 0.378): 0.342 ± 0.004 mPa·s
- viscosity (298.15 K, 101 kPa, x2 = 0.394): 0.343 ± 0.004 mPa·s
- viscosity (298.15 K, 101 kPa, x2 = 0.4): 0.343 ± 0.001 mPa·s
- viscosity (298.15 K, 101 kPa, x2 = 0.412): 0.345 ± 0.004 mPa·s
- viscosity (298.15 K, 101 kPa, x2 = 0.577): 0.369 ± 0.004 mPa·s
- viscosity (298.15 K, 101 kPa, x2 = 0.6): 0.373 ± 0.001 mPa·s
- viscosity (298.15 K, 101 kPa, x2 = 0.6804): 0.339 ± 0.003 mPa·s
- viscosity (298.15 K, 101 kPa, x2 = 0.711): 0.402 ± 0.004 mPa·s
- viscosity (298.15 K, 101 kPa, x2 = 0.743): 0.419 ± 0.005 mPa·s
- viscosity (298.15 K, 101 kPa, x2 = 0.8): 0.435 ± 0.001 mPa·s
- viscosity (298.15 K, 101 kPa, x2 = 0.86): 0.459 ± 0.005 mPa·s
- viscosity (298.15 K, 101 kPa, x2 = 0.881): 0.469 ± 0.005 mPa·s
- viscosity (298.15 K, 101 kPa, x2 = 0.887): 0.472 ± 0.005 mPa·s
- viscosity (298.15 K, 101 kPa, x2 = 0.9): 0.48 ± 0.004 mPa·s
- viscosity (298.15 K, 101.33 kPa, x1 = 0.0495): 0.509 ± 0.004 mPa·s
- viscosity (298.15 K, 101.33 kPa, x1 = 0.0999): 0.479 ± 0.004 mPa·s
- viscosity (298.15 K, 101.33 kPa, x1 = 0.1494): 0.455 ± 0.003 mPa·s
- viscosity (298.15 K, 101.33 kPa, x1 = 0.1995): 0.434 ± 0.003 mPa·s
- viscosity (298.15 K, 101.33 kPa, x1 = 0.245): 0.418 ± 0.003 mPa·s
- viscosity (298.15 K, 101.33 kPa, x1 = 0.2998): 0.4 ± 0.003 mPa·s
- viscosity (298.15 K, 101.33 kPa, x1 = 0.3451): 0.387 ± 0.003 mPa·s
- viscosity (298.15 K, 101.33 kPa, x1 = 0.3997): 0.374 ± 0.003 mPa·s
- viscosity (298.15 K, 101.33 kPa, x1 = 0.4489): 0.364 ± 0.003 mPa·s
- viscosity (298.15 K, 101.33 kPa, x1 = 0.495): 0.357 ± 0.003 mPa·s
- viscosity (298.15 K, 101.33 kPa, x1 = 0.5496): 0.349 ± 0.003 mPa·s
- viscosity (298.15 K, 101.33 kPa, x1 = 0.5999): 0.343 ± 0.003 mPa·s
- viscosity (298.15 K, 101.33 kPa, x1 = 0.6494): 0.34 ± 0.003 mPa·s
- viscosity (298.15 K, 101.33 kPa, x1 = 0.6997): 0.336 ± 0.003 mPa·s
- viscosity (298.15 K, 101.33 kPa, x1 = 0.745): 0.334 ± 0.003 mPa·s
- viscosity (298.15 K, 101.33 kPa, x1 = 0.7995): 0.333 ± 0.003 mPa·s
- viscosity (298.15 K, 101.33 kPa, x1 = 0.8496): 0.335 ± 0.003 mPa·s
- viscosity (298.15 K, 101.33 kPa, x1 = 0.8998): 0.338 ± 0.003 mPa·s
- viscosity (298.15 K, 101.33 kPa, x1 = 0.95): 0.34 ± 0.003 mPa·s
- viscosity (303 K, 100 kPa, x1 = 0.0991): 0.4985 ± 0.05 mPa·s
- viscosity (303 K, 100 kPa, x1 = 0.2043): 0.4812 ± 0.049 mPa·s
- viscosity (303 K, 100 kPa, x1 = 0.316): 0.4588 ± 0.046 mPa·s
- viscosity (303 K, 100 kPa, x1 = 0.4039): 0.4395 ± 0.044 mPa·s
- viscosity (303 K, 100 kPa, x1 = 0.5003): 0.4202 ± 0.042 mPa·s
- viscosity (303 K, 100 kPa, x1 = 0.6063): 0.4016 ± 0.041 mPa·s
- viscosity (303 K, 100 kPa, x1 = 0.7402): 0.3785 ± 0.038 mPa·s
- viscosity (303 K, 100 kPa, x1 = 0.8688): 0.3645 ± 0.037 mPa·s
- viscosity (303.15 K, 101 kPa, x1 = 0.0892): 0.423 ± 0.005 mPa·s
- viscosity (303.15 K, 101 kPa, x1 = 0.1871): 0.385 ± 0.005 mPa·s
- viscosity (303.15 K, 101 kPa, x1 = 0.2884): 0.357 ± 0.004 mPa·s
- viscosity (303.15 K, 101 kPa, x1 = 0.4054): 0.327 ± 0.004 mPa·s
- viscosity (303.15 K, 101 kPa, x1 = 0.4849): 0.317 ± 0.004 mPa·s
- viscosity (303.15 K, 101 kPa, x1 = 0.5981): 0.308 ± 0.004 mPa·s
- viscosity (303.15 K, 101 kPa, x1 = 0.6986): 0.302 ± 0.004 mPa·s
- viscosity (303.15 K, 101 kPa, x1 = 0.8078): 0.299 ± 0.004 mPa·s
- viscosity (303.15 K, 101 kPa, x1 = 0.8746): 0.514 ± 0.23 mPa·s
- viscosity (303.15 K, 101 kPa, x1 = 0.9013): 0.304 ± 0.004 mPa·s
- viscosity (308 K, 100 kPa, x1 = 0.0991): 0.4521 ± 0.045 mPa·s
- viscosity (308 K, 100 kPa, x1 = 0.2043): 0.4145 ± 0.042 mPa·s
- viscosity (308 K, 100 kPa, x1 = 0.316): 0.3945 ± 0.04 mPa·s
- viscosity (308 K, 100 kPa, x1 = 0.4039): 0.3815 ± 0.038 mPa·s
- viscosity (308 K, 100 kPa, x1 = 0.5003): 0.3712 ± 0.037 mPa·s
- viscosity (308 K, 100 kPa, x1 = 0.6063): 0.3621 ± 0.036 mPa·s
- viscosity (308 K, 100 kPa, x1 = 0.7402): 0.3502 ± 0.035 mPa·s
- viscosity (308 K, 100 kPa, x1 = 0.8688): 0.3423 ± 0.034 mPa·s
- viscosity (308.15 K, 101 kPa, x1 = 0.0892): 0.376 ± 0.004 mPa·s
- viscosity (308.15 K, 101 kPa, x1 = 0.1871): 0.346 ± 0.004 mPa·s
- viscosity (308.15 K, 101 kPa, x1 = 0.2884): 0.321 ± 0.004 mPa·s
- viscosity (308.15 K, 101 kPa, x1 = 0.4054): 0.298 ± 0.004 mPa·s
- viscosity (308.15 K, 101 kPa, x1 = 0.4849): 0.291 ± 0.004 mPa·s
- viscosity (308.15 K, 101 kPa, x1 = 0.5981): 0.282 ± 0.003 mPa·s
- viscosity (308.15 K, 101 kPa, x1 = 0.6986): 0.278 ± 0.003 mPa·s
- viscosity (308.15 K, 101 kPa, x1 = 0.8078): 0.276 ± 0.003 mPa·s
- viscosity (308.15 K, 101 kPa, x1 = 0.9013): 0.28 ± 0.003 mPa·s
- viscosity (308.15 K, 101.33 kPa, x1 = 0.0495): 0.451 ± 0.003 mPa·s
- viscosity (308.15 K, 101.33 kPa, x1 = 0.0999): 0.436 ± 0.003 mPa·s
- viscosity (308.15 K, 101.33 kPa, x1 = 0.1494): 0.412 ± 0.003 mPa·s
- viscosity (308.15 K, 101.33 kPa, x1 = 0.1995): 0.395 ± 0.003 mPa·s
- viscosity (308.15 K, 101.33 kPa, x1 = 0.245): 0.38 ± 0.003 mPa·s
- viscosity (308.15 K, 101.33 kPa, x1 = 0.2998): 0.364 ± 0.003 mPa·s
- viscosity (308.15 K, 101.33 kPa, x1 = 0.3451): 0.352 ± 0.003 mPa·s
- viscosity (308.15 K, 101.33 kPa, x1 = 0.3997): 0.341 ± 0.003 mPa·s
- viscosity (308.15 K, 101.33 kPa, x1 = 0.4489): 0.333 ± 0.003 mPa·s
- viscosity (308.15 K, 101.33 kPa, x1 = 0.495): 0.326 ± 0.003 mPa·s
- viscosity (308.15 K, 101.33 kPa, x1 = 0.5496): 0.32 ± 0.003 mPa·s
- viscosity (308.15 K, 101.33 kPa, x1 = 0.5999): 0.314 ± 0.003 mPa·s
- viscosity (308.15 K, 101.33 kPa, x1 = 0.6494): 0.31 ± 0.003 mPa·s
- viscosity (308.15 K, 101.33 kPa, x1 = 0.6997): 0.307 ± 0.003 mPa·s
- viscosity (308.15 K, 101.33 kPa, x1 = 0.745): 0.305 ± 0.003 mPa·s
- viscosity (308.15 K, 101.33 kPa, x1 = 0.7995): 0.305 ± 0.003 mPa·s
- viscosity (308.15 K, 101.33 kPa, x1 = 0.8496): 0.306 ± 0.003 mPa·s
- viscosity (308.15 K, 101.33 kPa, x1 = 0.8998): 0.307 ± 0.003 mPa·s
- viscosity (308.15 K, 101.33 kPa, x1 = 0.95): 0.309 ± 0.003 mPa·s
- viscosity (313 K, 100 kPa, x1 = 0.0991): 0.4125 ± 0.042 mPa·s
- viscosity (313 K, 100 kPa, x1 = 0.2043): 0.3956 ± 0.04 mPa·s
- viscosity (313 K, 100 kPa, x1 = 0.316): 0.3838 ± 0.039 mPa·s
- viscosity (313 K, 100 kPa, x1 = 0.4039): 0.3736 ± 0.038 mPa·s
- viscosity (313 K, 100 kPa, x1 = 0.5003): 0.3612 ± 0.036 mPa·s
- viscosity (313 K, 100 kPa, x1 = 0.6063): 0.3512 ± 0.035 mPa·s
- viscosity (313 K, 100 kPa, x1 = 0.7402): 0.3375 ± 0.034 mPa·s
- viscosity (313 K, 100 kPa, x1 = 0.8688): 0.3215 ± 0.032 mPa·s
- viscosity (318.15 K, 101.33 kPa, x1 = 0.0495): 0.403 ± 0.003 mPa·s
- viscosity (318.15 K, 101.33 kPa, x1 = 0.0999): 0.39 ± 0.003 mPa·s
- viscosity (318.15 K, 101.33 kPa, x1 = 0.1494): 0.376 ± 0.003 mPa·s
- viscosity (318.15 K, 101.33 kPa, x1 = 0.1995): 0.361 ± 0.003 mPa·s
- viscosity (318.15 K, 101.33 kPa, x1 = 0.245): 0.347 ± 0.003 mPa·s
- viscosity (318.15 K, 101.33 kPa, x1 = 0.2998): 0.333 ± 0.003 mPa·s
- viscosity (318.15 K, 101.33 kPa, x1 = 0.3451): 0.323 ± 0.003 mPa·s
- viscosity (318.15 K, 101.33 kPa, x1 = 0.3997): 0.313 ± 0.003 mPa·s
- viscosity (318.15 K, 101.33 kPa, x1 = 0.4489): 0.306 ± 0.003 mPa·s
- viscosity (318.15 K, 101.33 kPa, x1 = 0.495): 0.3 ± 0.003 mPa·s
